This is an account of results in publication PMC12005801, “Non‐Membrane Active Peptide Resensitizes MRSA to β‐Lactam Antibiotics and Inhibits S. aureus Virulence” (Advanced Science, 2025).

In assay [1] the test system is MRSA T144. The assay can be described thus: MIC assay of β-lactams in the presence of AMPs (potentiation). Format: cell-based, Staphylococcus aureus. Particulars: for Potentiation (fold)^c, MIC^a / MIC^b: antibiotic with 1/4 MIC GN1.
Procedure: A) Potentiation of different AMPs to piperacillin (PIP) against MRSA T144. 1/4 MIC AMPs were mixed with bacteria (10^6 CFU mL^−1) in MH medium and cultured with diluted PIP in 96‐well plates overnight. […] All experiments were conducted with three biological replicates and data were presented as mean ± SD.
Assay [2] has as its system MRSA T144. The assay can be described thus: MIC assay, agent alone. The arrangement: MIC^a, MIC in the presence of AMPs only: unit not given beside the values. To be noted: for MIC: Staphylococcus aureus. Type of assay: cell-based, Staphylococcus aureus.
The subject of assay [3] is MRSA T144. The assay can be described thus: Time-killing assay. Format: cell-based, Staphylococcus aureus. Particulars: identical concentrations alone: GN1 8 µg mL^−1, PIP 16 µg mL^−1, 12 h. As for the experimental part:
Briefly, overnight bacteria culture was diluted 1:1000 into LB and incubated for 4 h at 37 °C with 200 rpm. […] At the time points 0, 2, 4, 6, 8, 10, and 12 h, 100 µL bacteria culture was removed and resuspended in PBS and the serial dilutions were spotted on LB agar. After incubation overnight at 37 °C, the colony counts were calculated.

Another assay relates to S. aureus 29213. The assay can be described thus: MIC of β-lactams with/without GN1. Format: cell-based, Staphylococcus aureus. Particulars: for MIC: Staphylococcus aureus, antibiotic alone; for MIC (+1/2 MIC GN1): antibiotic + 1/2 MIC GN1. As for the experimental part:
MICs determination of drugs was based on the standard microdilution method as described previously.^[ [46] ^] Briefly, compounds were twofold serial dilution with MHB. Next, AMPs were added to the log‐phase bacteria suspensions (1 × 10^6 CFUs mL^−1) and then mixed with compounds in a 96‐well microliter plate (Corning, NY, USA).

The subject of assay [4] is MRSA T144. To be noted: addition of glutamate.
Procedure: G) Fold changes in MIC values of various β‐lactams in the presence of glutamate against MRSA T144. […] All experiments were conducted with three biological replicates and data were presented as mean ± SD. Statistical significance was analyzed by ordinary one‐way or two‐way ANOVA (*P < 0.05, **P < 0.01, ***P < 0.001, ****P < 0.0001). ns, not significant.
The mark [5] stands for this setting: MRSA, read-out: MIC^a, MIC in the presence of antibiotics only.
[6] abbreviates: MRSA T144, read-out: MIC^a, MIC in the presence of antibiotics only.

Read-outs that look alike come from different tables or passages of the source.

`CC1(C)S[C@@H]2[C@H](NC(=O)C(C(=O)O)c3ccccc3)C(=O)N2[C@H]1C(=O)O` (stereo partly drawn) [Carbenicillin]: in the assay on MRSA T144 [1], the “MIC^b, MIC in combination of antibiotics and 1/4 MIC GN1” value (shortened to “MIC^b, MIC in combination”) is 1 µg/mL; the “Potentiation (fold)^c, MIC^a / MIC^b” value turned out to be 32 fold. Also, the MIC (usually the lowest concentration that inhibits growth of the organism) in the assay with MRSA T144 [2] (setting [5]) was determined as 32 µg/mL.

For the compound `CCN1CCN(C(=O)N[C@@H](C(=O)N[C@@H]2C(=O)N3[C@@H]2SC(C)(C)[C@@H]3C(=O)O)c2ccccc2)C(=O)C1=O` [Piperacillin], the “Time-kill kinetics, single agent” value in the assay on MRSA T144 [3] is reported as “failed to prevent bacterial proliferation”. In addition, the MIC was 2 µg/mL with S. aureus 29213; 512 µg/mL in the assay with MRSA T144 [2] (MRSA T144, read-out: MIC of PIP alone); more than 512 µg/mL with MRSA T144 [2] (setting [6]). Also, the “MIC (+1/2 MIC GN1)” value with S. aureus 29213 was 0.5 µg/mL. Also, in the assay with MRSA T144 [1], the “MIC^b, MIC in combination” value worked out at 8 µg/mL.

In the case of Ac-WKVKWKVKWKVK-NH2 [WK-12], the “Potentiation (fold)^c, MIC^c / MIC^b” value with MRSA T144 [1] (MIC of piperacillin only / MIC of piperacillin with 1/4 MIC AMP) stood at 4 fold. Further, the “MIC^b, MIC of piperacillin in the presence of 1/4 MIC AMPs” value in the assay on MRSA T144 [1] (label = the AMP added at 1/4 MIC, no unit in table (text gives µg mL^−1)) is listed as 128. Moreover, the “MIC^a, MIC in the presence of AMPs only” value in the assay on MRSA T144 [2] (MRSA T144, microdilution in MHB, 1 × 10^6 CFUs mL^−1, 37 °C, 16–18 h, no unit in table (text gives µg mL^−1)) came out at 32.

Consider `CC1(C)S[C@@H]2[C@H](NC(=O)[C@H](N)c3ccccc3)C(=O)N2[C@H]1C(=O)O` [Ampicillin], for which, in the assay with S. aureus 29213, the MIC worked out at 16 µg/mL and the “MIC (+1/2 MIC GN1)” value is 8 µg/mL. In the assay with MRSA T144 [1], the “MIC^b, MIC in combination” value turned out to be 8 µg/mL; the “Potentiation (fold)^c, MIC^a / MIC^b” value was 64 fold. Moreover, the minimal inhibitory concentration (MIC) with MRSA T144 [2] (setting [6]) amounted to 512 µg/mL.

For the compound `C[C@@H](O)[C@H]1C(=O)N2C(C(=O)O)=C(S[C@@H]3CN[C@H](C(=O)N(C)C)C3)[C@H](C)[C@H]12` [Meropenem], in the assay on S. aureus 29213, the MIC stood at 0.0625 µg/mL and the “MIC (+1/2 MIC GN1)” value was determined as 0.03125 µg/mL. In the assay with MRSA T144 [1], the “MIC^b, MIC in combination” value stood at 0.0625 µg/mL; the “Potentiation (fold)^c, MIC^a / MIC^b” value was 16 fold. The minimum inhibitory concentration (MIC) in the assay on MRSA T144 [2] (setting [5]) was determined as 1 µg/mL.

For the compound `N[C@@H](CCC(=O)O)C(=O)O` [glutamate], the “Reduction of MIC values of three β‐lactam antibiotics” value in the assay on MRSA T144 [4] was 2-16 fold.

In the case of `CO/N=C(\C(=O)N[C@@H]1C(=O)N2C(C(=O)[O-])=C(C[N+]3(C)CCCC3)CS[C@H]12)c1csc(N)n1` [Cefepime], in the assay on S. aureus 29213, the minimal inhibitory concentration (MIC) turned out to be 4 µg/mL and the “MIC (+1/2 MIC GN1)” value was determined as 2 µg/mL. In the assay with MRSA T144 [1], the “MIC^b, MIC in combination” value turned out to be 2 µg/mL; the “Potentiation (fold)^c, MIC^a / MIC^b” value is listed as 4 fold. Also, in the assay on MRSA T144 [2] (setting [5]), the MIC amounted to 8 µg/mL.

`CO/N=C(\C(=O)N[C@@H]1C(=O)N2C(C(=O)O)=C(COC(N)=O)CS[C@H]12)c1ccco1` [Cefuroxime]: in the assay with MRSA T144 [1], the “MIC^b, MIC in combination” value worked out at 1 µg/mL; the “Potentiation (fold)^c, MIC^a / MIC^b” value worked out at 8 fold. In the assay on MRSA T144 [2] (setting [5]), the MIC was 8 µg/mL.

As to `CO/N=C(\C(=O)N[C@@H]1C(=O)N2C(C(=O)O)=C(CSc3nc(=O)c(=O)[nH]n3C)CS[C@H]12)c1csc(N)n1` [Ceftriaxone], in the assay with MRSA T144 [1], the “MIC^b, MIC in combination” value came out at 4 µg/mL; the “Potentiation (fold)^c, MIC^a / MIC^b” value is reported as 8 fold. In the assay on MRSA T144 [2] (setting [5]), the MIC amounted to 32 µg/mL.

On to `Cc1onc(-c2ccccc2)c1C(=O)N[C@@H]1C(=O)N2[C@@H]1SC(C)(C)[C@@H]2C(=O)O` [Oxacillin], for which, in the assay on MRSA T144 [1], the “MIC^b, MIC in combination” value was 0.03125 µg/mL; the “Potentiation (fold)^c, MIC^a / MIC^b” value is given as 32 fold. In addition, the MIC in the assay with MRSA T144 [2] (setting [6]) is 1 µg/mL.

`CC1(C)S[C@@H]2[C@H](NC(=O)[C@H](C(=O)O)c3ccsc3)C(=O)N2[C@H]1C(=O)O` [Ticarcillin]: in the assay on S. aureus 29213, the MIC was 2 µg/mL and the “MIC (+1/2 MIC GN1)” value was determined as 2 µg/mL. In addition, in the assay with MRSA T144 [1], the “MIC^b, MIC in combination” value is 1 µg/mL; the “Potentiation (fold)^c, MIC^a / MIC^b” value is on record as 16 fold. For the same compound, the minimum inhibitory concentration (MIC) with MRSA T144 [2] (setting [6]) is 16 µg/mL.
